Patent publication US11666558B2, “Methods of treating intraocular pressure with activators of Tie-2” (EyePoint Pharmaceuticals, Inc., priority 2015, dated 2023)

Experiments:
HPTP-β = HPTP-β (Homo sapiens (Human), UniProt P23467); experiment: HPTP-β inhibitory activity (IC50); type: biochemical
intraocular pressure = experiment: Intraocular pressure, Compound 1 with sham or ranibizumab, Months 1-3 (FIG. 2, TABLE 1); type: in vivo
Procedure: The difference in IOP was determined relative to a pre-treatment baseline (Base) at months 1, 2, and 3 (M1-M3). Intraocular pressure was determined in the study eye in millimeters of mercury (mmHg). […] The difference in IOP was determined relative to a pre-treatment Baseline at Months 1, 2 and 3. Intraocularpressure was determined in the study eye/fellow eye in mmHg.

HPTP-β, sequence (P23467 23-1997): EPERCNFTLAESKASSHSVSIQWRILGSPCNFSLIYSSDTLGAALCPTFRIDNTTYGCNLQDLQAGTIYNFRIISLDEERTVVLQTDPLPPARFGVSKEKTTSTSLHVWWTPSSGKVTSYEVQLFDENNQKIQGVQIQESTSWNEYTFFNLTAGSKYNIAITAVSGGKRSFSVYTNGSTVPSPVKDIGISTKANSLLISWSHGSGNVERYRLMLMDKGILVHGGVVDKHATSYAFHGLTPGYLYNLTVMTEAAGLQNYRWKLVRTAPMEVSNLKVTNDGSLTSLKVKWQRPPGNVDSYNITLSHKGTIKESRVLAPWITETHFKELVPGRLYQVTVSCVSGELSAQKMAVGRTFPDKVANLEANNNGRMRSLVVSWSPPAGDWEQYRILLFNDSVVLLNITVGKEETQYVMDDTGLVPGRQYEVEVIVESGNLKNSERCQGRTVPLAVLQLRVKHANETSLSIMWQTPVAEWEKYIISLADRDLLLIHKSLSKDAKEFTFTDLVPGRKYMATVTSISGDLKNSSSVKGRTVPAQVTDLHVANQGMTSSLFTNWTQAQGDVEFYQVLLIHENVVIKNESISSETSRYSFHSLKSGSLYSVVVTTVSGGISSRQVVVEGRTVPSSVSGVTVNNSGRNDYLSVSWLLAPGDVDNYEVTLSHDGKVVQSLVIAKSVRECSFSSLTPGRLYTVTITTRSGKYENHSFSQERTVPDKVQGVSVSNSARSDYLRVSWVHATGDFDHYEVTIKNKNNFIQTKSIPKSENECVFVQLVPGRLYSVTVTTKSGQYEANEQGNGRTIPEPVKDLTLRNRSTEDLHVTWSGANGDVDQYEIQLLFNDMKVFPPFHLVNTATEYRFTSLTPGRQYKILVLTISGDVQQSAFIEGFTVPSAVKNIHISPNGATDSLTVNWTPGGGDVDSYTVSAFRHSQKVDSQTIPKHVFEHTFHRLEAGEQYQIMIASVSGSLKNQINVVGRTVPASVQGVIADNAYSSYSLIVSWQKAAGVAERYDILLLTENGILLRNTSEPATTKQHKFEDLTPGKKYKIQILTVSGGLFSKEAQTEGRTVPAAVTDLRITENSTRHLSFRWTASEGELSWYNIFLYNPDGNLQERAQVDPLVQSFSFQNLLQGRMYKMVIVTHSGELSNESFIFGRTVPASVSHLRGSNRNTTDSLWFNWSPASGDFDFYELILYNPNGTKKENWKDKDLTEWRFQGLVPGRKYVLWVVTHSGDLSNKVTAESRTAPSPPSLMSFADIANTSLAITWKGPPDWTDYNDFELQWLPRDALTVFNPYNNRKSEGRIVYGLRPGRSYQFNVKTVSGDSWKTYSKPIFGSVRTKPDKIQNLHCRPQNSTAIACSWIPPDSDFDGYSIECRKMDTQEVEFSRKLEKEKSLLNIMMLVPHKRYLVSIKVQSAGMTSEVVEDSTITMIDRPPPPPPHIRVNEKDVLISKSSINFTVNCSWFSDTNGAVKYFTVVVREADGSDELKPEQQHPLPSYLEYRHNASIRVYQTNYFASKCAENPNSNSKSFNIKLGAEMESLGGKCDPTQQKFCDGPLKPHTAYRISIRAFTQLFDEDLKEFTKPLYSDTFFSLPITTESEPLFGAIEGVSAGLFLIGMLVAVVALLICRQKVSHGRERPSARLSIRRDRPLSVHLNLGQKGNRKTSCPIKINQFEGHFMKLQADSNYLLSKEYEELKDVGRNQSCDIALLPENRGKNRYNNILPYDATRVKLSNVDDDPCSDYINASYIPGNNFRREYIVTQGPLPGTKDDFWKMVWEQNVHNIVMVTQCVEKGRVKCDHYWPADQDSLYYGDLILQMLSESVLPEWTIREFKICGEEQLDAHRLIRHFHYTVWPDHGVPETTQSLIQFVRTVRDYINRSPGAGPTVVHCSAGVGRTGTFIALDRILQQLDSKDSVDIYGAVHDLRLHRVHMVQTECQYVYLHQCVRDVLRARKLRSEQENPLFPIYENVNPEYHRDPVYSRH

CCc1csc([C@H](Cc2ccc(NS(=O)(=O)O)cc2)NC(=O)[C@H](CNC(=O)OC(C)(C)C)Cc2ccccc2)n1 [AA3]
IC50 (HPTP-β): 31 nM

COC(=O)N[C@@H](Cc1ccccc1)C(=O)N[C@@H](Cc1ccc(NS(=O)(=O)O)cc1)c1nc(-c2ccccc2)cs1 [AA21]
IC50 (HPTP-β): < 0.002 nM

CCc1csc([C@H](Cc2ccc(NS(=O)(=O)O)cc2)NC(=O)[C@H](CC(C)C)NC(=O)OC(C)(C)C)n1 [AA42]
IC50 (HPTP-β): 6 nM

CC(C)(C)OC(=O)N[C@@H](Cc1ccc(NS(=O)(=O)O)cc1)c1csc(OC(=O)C(C)(C)C)n1 [AA71]
IC50 (HPTP-β): 555 nM

ranibizumab [placebo + RBZ]
IOP, fellow eye (intraocular pressure; Baseline (pre-treatment)): 15.8 mmHg
IOP, study eye (intraocular pressure; Baseline (pre-treatment)): 15.2 mmHg
IOP, fellow eye (intraocular pressure; Month 1): 15.5 mmHg
IOP, study eye (intraocular pressure; Month 1): 15.0 mmHg
IOP, fellow eye (intraocular pressure; Month 2): 15.5 mmHg
IOP, study eye (intraocular pressure; Month 2): 15.0 mmHg
IOP, fellow eye (intraocular pressure; Month 3): 15.7 mmHg
IOP, study eye (intraocular pressure; Month 3): 15.3 mmHg
